Data published in publication PMC11374660, “The novel family of Warbicin® compounds inhibits glucose uptake both in yeast and human cells and restrains cancer cell proliferation” (Frontiers in Oncology, 2024).

Key:
[1] = system: hxk2Δ hxk1Δ glk1Δ yeast cells; experiment: Glucose uptake in hxk2Δ hxk1Δ glk1Δ yeast cells; assay type: cell-based, S. cerevisiae; conditions: strain lacking glucose phosphorylation
Description: Zero-trans uptake of radioactively labeled [U-^14C]glucose, [U-^14C]fructose or [U-^14C]galactose by S. cerevisiae cells was determined in accordance with previous studies ([45], [75]). Cells were grown on different carbon sources depending on the experiment. For measuring glucose uptake activity in the tps1Δ and tps1Δ hxtΔ strains, cells were grown on YP medium containing 325 mM glycerol (measurement of 10 s). Typically, for compound characterization and kinetic studies in wild type and tps1Δ strains, cells were (pre)grown on Complete Synthetic medium supplemented with 110 mM galactose (measurement of 10 s). In the experiments on the influence of hexokinase activity on the sugar uptake rate, the measurement duration was shortened to 5 s and cells were always grown on YP medium containing 325 mM glycerol and 430 mM ethanol. After harvesting, cells were washed twice with ice-cold 25 mM MES-buffer pH 6, and resuspended in their respective medium without sugar to a final concentration of 45 mg (wet weight)/mL. The amount of added tracer was estimated to give a response close to at least 1000 counts per min in order to adequately counter background noise. […] The loaded filter was transferred to a scintillation vial containing 3 mL liquid scintillation cocktail (Ultima-Flo M, Perkin Elmer) and counted using the Hidex 300 SL. […]

[2] = molecular target: T1, human GLUT1^V69M (Homo sapiens, UniProt P11166, V69M); experiment: Glucose uptake by GLUT1^V69M expressed in yeast RE700A hxt^0 gal2Δ; assay type: cell-based; conditions: 25 µM, hxt^0 gal2Δ strain
T1 construct: expressed in transfected cells; host or cells: S. cerevisiae RE700A hxt0 gal2Δ transformed with pFL38Kan-GLUT1^V69M (TEF1 promoter, low-copy)
T1 sequence (P11166 1-492 V69M): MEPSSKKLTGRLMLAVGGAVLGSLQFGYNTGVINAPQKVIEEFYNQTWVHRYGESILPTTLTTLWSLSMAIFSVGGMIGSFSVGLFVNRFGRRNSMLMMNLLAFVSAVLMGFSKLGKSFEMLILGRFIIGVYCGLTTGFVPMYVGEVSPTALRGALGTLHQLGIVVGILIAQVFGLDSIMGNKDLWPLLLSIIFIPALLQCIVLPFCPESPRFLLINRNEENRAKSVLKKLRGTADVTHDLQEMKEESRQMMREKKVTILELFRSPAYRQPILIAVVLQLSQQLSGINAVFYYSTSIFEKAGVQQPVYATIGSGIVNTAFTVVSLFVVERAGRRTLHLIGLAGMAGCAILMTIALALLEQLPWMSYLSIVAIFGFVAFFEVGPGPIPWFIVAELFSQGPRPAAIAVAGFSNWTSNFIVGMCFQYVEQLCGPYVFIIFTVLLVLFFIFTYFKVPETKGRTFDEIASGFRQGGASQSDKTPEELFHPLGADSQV
Description: (§1) Cells of S. cerevisiae were either grown in minimal or rich medium. For minimal medium, cells were grown in Complete Synthetic medium (MP biomedicals) containing 0.5% (w/v) ammonium sulphate (Sigma-Aldrich), 0.17% (w/v) yeast nitrogen base without amino acids and without ammonium sulphate, supplemented with 100 mg/L adenine. In the case of auxotrophic selection, the appropriate composition of essential amino acids (MP Biomedicals) was chosen. For liquid medium, pH was adjusted to 5.5 and for solid medium (2% agar) to 6.5 with KOH. For rich medium, cells were grown on YP medium (1% w/v yeast extract, 2% w/v bacteriological peptone), supplemented with 100 mg/L adenine. Cells of the EBY.VW4000 hxt^0 strain expressing a single HXT carrier or GLUT isoform were (pre)grown in YP medium with 58 mM maltose (which is taken up by its own dedicated maltose transporter). S. cerevisiae cells were always grown at 30°C. Liquid cultures were shaken at 200 rpm.
(§2) Zero-trans uptake of radioactively labeled [U-^14C]glucose, [U-^14C]fructose or [U-^14C]galactose by S. cerevisiae cells was determined in accordance with previous studies ([45], [75]). Cells were grown on different carbon sources depending on the experiment. […] The loaded filter was transferred to a scintillation vial containing 3 mL liquid scintillation cocktail (Ultima-Flo M, Perkin Elmer) and counted using the Hidex 300 SL. […]

[3] = molecular target: T2, yeast Hxt7 (Saccharomyces cerevisiae, UniProt P39004); experiment: Glucose uptake by Hxt7 expressed in yeast RE700A hxt^0 gal2Δ; assay type: cell-based, S. cerevisiae; conditions: 25 µM, hxt^0 gal2Δ strain
T2 construct: expressed in transfected cells; host or cells: S. cerevisiae RE700A hxt0 gal2Δ (A7) or EBY.VW4000 hxt0 erg4Δ (A9) transformed with pHXT7
Description: as §1, §2

[4] = system: untransformed MCF10A cell line; experiment: Growth and apoptosis of untransformed MCF10A cells (IncuCyte); assay type: cell-based, human; conditions: 1 mM glucose, 25 µM

T2 sequence (P39004 whole entry): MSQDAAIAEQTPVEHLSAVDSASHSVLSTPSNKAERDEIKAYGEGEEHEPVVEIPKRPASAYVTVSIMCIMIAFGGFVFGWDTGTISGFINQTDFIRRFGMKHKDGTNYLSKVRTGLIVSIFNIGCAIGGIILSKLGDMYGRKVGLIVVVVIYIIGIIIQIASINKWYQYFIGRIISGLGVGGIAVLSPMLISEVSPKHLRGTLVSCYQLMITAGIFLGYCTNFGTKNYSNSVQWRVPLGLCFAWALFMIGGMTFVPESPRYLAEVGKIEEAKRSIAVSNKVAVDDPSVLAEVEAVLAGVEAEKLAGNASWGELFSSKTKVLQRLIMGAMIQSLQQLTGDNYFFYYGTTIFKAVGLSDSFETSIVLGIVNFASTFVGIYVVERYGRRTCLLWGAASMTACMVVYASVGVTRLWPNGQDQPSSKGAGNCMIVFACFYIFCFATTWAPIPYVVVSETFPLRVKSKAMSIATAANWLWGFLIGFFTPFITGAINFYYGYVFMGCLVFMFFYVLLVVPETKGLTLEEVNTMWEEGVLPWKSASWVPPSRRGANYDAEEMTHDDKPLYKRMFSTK

SMILES: Cc1nc(Sc2nnc3n2CCCCC3)c2c(-c3cccs3)csc2n1 [WBC-A]
- 1 mM glucose uptake rate [1]: little further inhibition
- inhibition of 2.5 mM glucose uptake by GLUT1^V69M [2]: inhibited glucose uptake both by Hxt7 and GLUT1^V69M
- inhibition of 2.5 mM glucose uptake by Hxt7 [3]: inhibited glucose uptake both by Hxt7 and GLUT1^V69M

SMILES: Cc1nc(SCC(=O)c2ccc3c(c2)NC(=O)CO3)c2c(-c3cccs3)csc2n1 [WBC-11C]
- induction of apoptosis [4]: induces apoptosis
